# Assay results as given in PMC12715762, “Discovery of VU6052254: A Novel, Potent M1 Positive Allosteric Modulator” (ACS Chemical Neuroscience, 2025).
# How the values were obtained:
# rat M1 = molecular target: T1, rat M1 (Rattus norvegicus, UniProt P08482); assay: M1 agonist calcium mobilization assay (rat); format: cell-based
# T1 construct: expressed in transfected cells
# T1 sequence (P08482 1-460): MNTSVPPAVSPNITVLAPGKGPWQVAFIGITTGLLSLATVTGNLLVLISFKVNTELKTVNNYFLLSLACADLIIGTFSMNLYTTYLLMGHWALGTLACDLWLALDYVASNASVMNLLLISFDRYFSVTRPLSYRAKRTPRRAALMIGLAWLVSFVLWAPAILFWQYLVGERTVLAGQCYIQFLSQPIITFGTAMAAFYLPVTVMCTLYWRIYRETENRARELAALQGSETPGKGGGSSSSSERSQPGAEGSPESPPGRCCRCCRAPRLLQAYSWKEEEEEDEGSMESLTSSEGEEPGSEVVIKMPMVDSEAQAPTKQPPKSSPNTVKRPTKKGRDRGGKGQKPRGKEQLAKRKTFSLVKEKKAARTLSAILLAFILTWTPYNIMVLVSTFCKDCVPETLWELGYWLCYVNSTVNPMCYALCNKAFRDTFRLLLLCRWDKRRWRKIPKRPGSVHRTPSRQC
# CYP 2C19 = CYP 2C19 (Homo sapiens, UniProt P33261); assay: CYP450 inhibition; format: in vitro ADME
# C57Bl/6 mice = assay: phenotypic seizure liability assay (Racine scale); format: in vivo, mouse
# Description: min, with an isocratic hold for 0.5 min, before transitioning to 10% B over 0.05 min. The column was re-equilibrated (1 min) before the next sample injection. The total run time was 2.55 min, and the HPLC flow rate was 0.5 ml/min. The source temperature was set at 500 °C, and mass spectral analyses were performed using a Turbo-Ion spray source in positive ionization mode (5.0-kV spray voltage) and using multiple-reaction monitoring of transitions specific for the analytes. All data were analyzed using AB Sciex Analyst 1.5.1 software.
# Brain plasma concentration ratio (Kp) was calculated by dividing brain concentration by plasma concentration for each animal. Unbound brain to unbound plasma concentration ratio (Kp,uu) is calculated using the following formula: Kp,uu = (Brain ng/g x brain fu)/(plasma ng/ml x plasma fu).
# Pharmacokinetic profiles in rats following oral single escalating doses Single escalating oral dosing in Sprague-Dawley rats was performed at Frontage Laboratories according to their non-GLP Standard Operating Procedure and IACUC protocols. In short, compounds were formulated in 10% Tween 80 in water and dosed at 10 mg/kg. At different times, arterial blood was collected from a femoral artery catheter, and compound concentration was determined in plasma by LC-MS/MS following their non-GLP protocol. PK parameters were determined using Phoenix WinNonlin software (version 6.3). […]
# Blood-brain barrier penetration was determined using MDR1-MDCK cell monolayers by Absorption Systems, following their protocol. […] Compounds concentration on either side of the monolayer was determined by LC-MS/MS and apparent permeability and efflux ratio were determined as described in Wang, Q. et al.1 […]
# To evaluate induction of behavioral manifestation of seizure activity, C57Bl/6 mice received administration of vehicle or 100 mg/kg M1 PAM 5. […] Animals were monitored continuously and scored for behavioral manifestations of seizure activity at 5, 15, 30 min, and 1 h. Behavioral manifestations of seizures were scored using a modified Racine scoring system. […]
# M1 KO mice = assay: Racine seizure assay in M1 KO mice; format: in vivo, mouse; conditions: result in words
# 3A5 = 3A5 (Homo sapiens, UniProt P20815); assay: CYP450 phenotyping, recombinant enzymes; format: in vitro ADME; conditions: 3A5, panel of eight recombinant enzymes
# Bradykinin B1 = Bradykinin B1 (Homo sapiens, UniProt P46663); assay: Eurofins radioligand binding
# Estrogen ERα = Estrogen ERα (Homo sapiens, UniProt P03372); assay: Eurofins radioligand binding
# Glutamate, Kainate = assay: Eurofins radioligand binding; conditions: Rat
# Phorbol Ester = assay: Eurofins radioligand binding; conditions: Mouse
# hERG potassium channel = hERG potassium channel (Homo sapiens, UniProt Q12809); assay: Eurofins radioligand binding
# hERG potassium channel, sequence (Q12809 whole entry): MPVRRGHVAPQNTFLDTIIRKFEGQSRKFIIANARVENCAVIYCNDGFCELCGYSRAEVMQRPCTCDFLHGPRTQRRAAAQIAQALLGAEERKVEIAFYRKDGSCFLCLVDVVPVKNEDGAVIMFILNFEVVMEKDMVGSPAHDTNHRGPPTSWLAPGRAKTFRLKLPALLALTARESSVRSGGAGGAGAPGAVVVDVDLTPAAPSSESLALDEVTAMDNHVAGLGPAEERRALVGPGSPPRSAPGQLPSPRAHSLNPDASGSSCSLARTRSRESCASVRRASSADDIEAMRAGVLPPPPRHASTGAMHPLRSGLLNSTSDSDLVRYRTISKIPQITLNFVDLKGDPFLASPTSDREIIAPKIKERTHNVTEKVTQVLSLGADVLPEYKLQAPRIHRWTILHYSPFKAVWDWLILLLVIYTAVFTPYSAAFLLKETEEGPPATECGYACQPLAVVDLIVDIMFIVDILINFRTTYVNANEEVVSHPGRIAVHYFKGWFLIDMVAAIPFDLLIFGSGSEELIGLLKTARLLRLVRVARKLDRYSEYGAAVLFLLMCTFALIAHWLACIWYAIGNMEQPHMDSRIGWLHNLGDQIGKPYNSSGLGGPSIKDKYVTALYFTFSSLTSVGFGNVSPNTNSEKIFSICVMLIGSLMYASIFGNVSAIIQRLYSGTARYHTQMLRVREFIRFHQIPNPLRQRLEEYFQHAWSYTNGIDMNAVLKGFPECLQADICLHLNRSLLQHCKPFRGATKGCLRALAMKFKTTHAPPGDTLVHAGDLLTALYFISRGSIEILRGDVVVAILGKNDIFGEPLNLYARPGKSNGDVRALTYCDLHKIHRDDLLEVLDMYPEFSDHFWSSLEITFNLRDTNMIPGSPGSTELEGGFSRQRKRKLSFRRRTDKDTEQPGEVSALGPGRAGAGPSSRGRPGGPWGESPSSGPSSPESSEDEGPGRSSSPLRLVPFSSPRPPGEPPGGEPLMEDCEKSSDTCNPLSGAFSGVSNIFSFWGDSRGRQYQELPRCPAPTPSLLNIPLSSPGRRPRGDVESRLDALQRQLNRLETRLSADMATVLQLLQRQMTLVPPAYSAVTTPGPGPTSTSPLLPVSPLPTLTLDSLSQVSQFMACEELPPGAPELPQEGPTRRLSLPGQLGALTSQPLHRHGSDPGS
# Bradykinin B1, sequence (P46663 whole entry): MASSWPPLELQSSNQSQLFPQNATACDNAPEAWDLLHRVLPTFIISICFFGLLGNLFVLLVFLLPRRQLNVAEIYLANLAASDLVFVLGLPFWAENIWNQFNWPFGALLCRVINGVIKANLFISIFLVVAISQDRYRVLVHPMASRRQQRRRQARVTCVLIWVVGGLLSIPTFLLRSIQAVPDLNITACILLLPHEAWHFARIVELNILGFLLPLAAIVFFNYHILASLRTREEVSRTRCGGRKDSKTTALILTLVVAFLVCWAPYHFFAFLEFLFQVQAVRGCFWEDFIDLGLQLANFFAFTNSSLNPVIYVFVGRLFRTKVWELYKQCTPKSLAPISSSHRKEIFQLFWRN
# 3A5, sequence (P20815 whole entry): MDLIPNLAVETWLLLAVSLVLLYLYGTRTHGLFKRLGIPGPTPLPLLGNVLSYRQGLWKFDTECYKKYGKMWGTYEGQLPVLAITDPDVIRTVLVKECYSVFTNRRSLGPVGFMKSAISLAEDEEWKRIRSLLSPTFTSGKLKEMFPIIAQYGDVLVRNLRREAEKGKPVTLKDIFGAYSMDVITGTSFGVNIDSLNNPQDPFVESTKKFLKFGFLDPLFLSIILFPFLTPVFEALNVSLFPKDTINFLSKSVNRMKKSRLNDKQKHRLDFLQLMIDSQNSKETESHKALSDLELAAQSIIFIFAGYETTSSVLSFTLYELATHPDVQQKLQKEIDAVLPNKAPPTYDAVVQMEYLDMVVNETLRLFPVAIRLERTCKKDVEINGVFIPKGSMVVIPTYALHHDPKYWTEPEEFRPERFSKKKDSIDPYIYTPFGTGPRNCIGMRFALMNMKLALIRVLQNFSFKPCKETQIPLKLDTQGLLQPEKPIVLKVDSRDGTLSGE
# Estrogen ERα, sequence (P03372 whole entry): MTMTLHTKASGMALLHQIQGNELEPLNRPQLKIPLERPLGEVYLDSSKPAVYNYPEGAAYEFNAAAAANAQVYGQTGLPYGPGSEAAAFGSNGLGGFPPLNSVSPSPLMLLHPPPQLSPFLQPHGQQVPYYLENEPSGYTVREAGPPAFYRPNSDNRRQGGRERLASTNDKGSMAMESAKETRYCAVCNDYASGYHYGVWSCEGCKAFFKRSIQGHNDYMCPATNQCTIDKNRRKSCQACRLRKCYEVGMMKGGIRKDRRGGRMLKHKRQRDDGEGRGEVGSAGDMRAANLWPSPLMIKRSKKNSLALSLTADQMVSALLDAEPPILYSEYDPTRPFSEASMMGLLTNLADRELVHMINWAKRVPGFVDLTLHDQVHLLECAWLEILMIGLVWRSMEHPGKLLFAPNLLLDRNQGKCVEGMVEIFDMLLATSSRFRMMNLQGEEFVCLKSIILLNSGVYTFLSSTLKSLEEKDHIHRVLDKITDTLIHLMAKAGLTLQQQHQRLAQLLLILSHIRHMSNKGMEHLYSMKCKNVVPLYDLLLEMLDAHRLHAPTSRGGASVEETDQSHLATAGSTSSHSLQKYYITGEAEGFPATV
# CYP 2C19, sequence (P33261 whole entry): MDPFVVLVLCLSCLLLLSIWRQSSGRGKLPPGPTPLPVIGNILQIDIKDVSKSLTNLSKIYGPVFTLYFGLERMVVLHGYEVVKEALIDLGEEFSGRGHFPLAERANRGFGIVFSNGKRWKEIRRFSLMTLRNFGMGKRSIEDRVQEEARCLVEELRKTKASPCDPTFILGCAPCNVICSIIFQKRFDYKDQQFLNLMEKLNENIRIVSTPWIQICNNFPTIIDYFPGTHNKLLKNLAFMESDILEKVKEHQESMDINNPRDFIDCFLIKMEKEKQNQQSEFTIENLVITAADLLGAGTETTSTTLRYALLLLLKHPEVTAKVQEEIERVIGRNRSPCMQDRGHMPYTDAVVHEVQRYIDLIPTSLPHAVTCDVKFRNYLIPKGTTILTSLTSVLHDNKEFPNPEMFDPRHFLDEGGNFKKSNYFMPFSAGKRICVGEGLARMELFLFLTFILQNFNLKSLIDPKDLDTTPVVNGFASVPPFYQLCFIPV
structure (smiles),measurement,setting,value
Cn1cc2c(-c3cc(F)c(CN4Cc5ncccc5C4=O)c(F)c3)ccc(C(C)(C)O)c2n1 [compound 7],rM1 Agonist AChmax (%),"rat M1; rat M1, % ACh max, n = 5",17%
same,EC50,"rat M1; rat M1, n = 5, read-out: rM1 Agonist EC50",> 10 µM
same,IC50,CYP 2C19,> 30 µM
same,AEs in seizure liability assay,"C57Bl/6 mice; 56.6 mg/kg IP, mice, result in words",negligible AEs
same,Racine scale scores,"C57Bl/6 mice; 100 mg/kg IP, mice",less than 2
same,AEs in Racine score test,"C57Bl/6 mice; 56.6 and 100 mg/kg, i.p., 360 min, male C57Bl/6 mice, result in words",minimal AEs at 60 min postadministration with a lack of AEs observed at 6 h
same,Racine-scale effects in M1 KO mice,M1 KO mice,absent
same,"contribution to metabolism, CYP450 phenotyping",3A5,3.2%
same,inhibition at 10 µM,Bradykinin B1,0%
same,inhibition at 10 µM,Estrogen ERα,12%
same,% Inhibition at 10 µM,"Glutamate, Kainate",-2%
same,% Inhibition at 10 µM,Phorbol Ester,12%
same,inhibition at 10 µM,hERG potassium channel,2%
